How the values were obtained:
[1] = target: T1, Staphylococcus aureus lipase (SAL) (Staphylococcus aureus, UniProt Q2G155); assay: X-ray co-crystal structures; assay type: biochemical
[2] = target: T1, Staphylococcus aureus lipase (SAL); assay: pNPB hydrolysis assay; assay type: biochemical

T1 sequence (Q2G155 297-690): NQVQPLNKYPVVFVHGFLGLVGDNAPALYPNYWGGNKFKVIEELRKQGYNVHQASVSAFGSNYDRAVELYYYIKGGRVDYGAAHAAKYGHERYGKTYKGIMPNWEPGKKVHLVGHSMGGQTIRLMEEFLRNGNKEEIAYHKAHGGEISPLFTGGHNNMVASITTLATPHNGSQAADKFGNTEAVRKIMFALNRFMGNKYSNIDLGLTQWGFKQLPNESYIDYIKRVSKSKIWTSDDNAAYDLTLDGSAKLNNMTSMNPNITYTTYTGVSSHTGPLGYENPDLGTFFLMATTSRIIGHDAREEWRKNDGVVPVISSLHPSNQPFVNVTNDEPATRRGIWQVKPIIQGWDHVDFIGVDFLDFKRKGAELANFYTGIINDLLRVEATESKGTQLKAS

| SMILES | IC50 [1] [µM] | IC50 [2] [µM] |
| --- | --- | --- |
| OC1(c2ccc(Cl)c(C(F)(F)F)c2)CCN(CCCC(c2ccc(F)cc2)c2ccc(F)cc2)CC1 [penfluridol, 1-[4,4-bis(4-fluorophenyl)butyl]-4-[4-chloro-3-(trifluoromethyl)phenyl]piperidin-4-ol] | 7.3 | – |
| O=c1[nH]c2ccccc2n1C1CCN(CCCC(c2ccc(F)cc2)c2ccc(F)cc2)CC1 [pimozide, 3-[1-[4,4-bis(4-fluorophenyl)butyl]piperidin-4-yl]-1H-benzimidazol-2-one] | – | ~48.5 |
